Like-named read-outs stand apart in the source and are kept apart here. Marks after values point to notes of the source that are not given here.
Legend:
human subjects = experiment: Effective and maximum tolerable nasal and oral carbon dioxide flow rates measured with laboratory apparatus; format: in vivo
Source text: (§1) The test device was a hand-held, multi-dose, disposable, dispenser that was approximately 3 to 4 inches long and 6/8 to ⅞ inches in diameter constructed as described above. The device consisted of a plastic twist-top flow regulator mounted on top of a pressurized steel cartridge containing liquid carbon dioxide. The tip of the flow regulator has a nosepiece that is the optimal size and configuration to place against and seal off a nostril for administration of the gas. In a number of subjects, the effective nasal and oral carbon dioxide flow rates, and maximum tolerable nasal and oral flow rates, were measured using a laboratory apparatus. This apparatus consisted of a flow regulator connected via tubing to a flow meter and a large tank of carbon dioxide. These flow data were used, together with the number of seconds gas was administered during therapy, to calculate the estimated dose of gas in milliliters.
Initially, the effective nasal and oral, and maximum tolerable nasal and oral carbon dioxide flow rates were measured in seven subjects using a laboratory apparatus. The flow rate selected that is effective or the maximum tolerable rate varies with the individual. At low flow rates, the presence of the carbon dioxide produces a “tingling” sensation similar to that produced during drinking of carbonated beverages that inadvertently enter the nasal passages e.g., “bubbles up the nose”. This is the effective rate and the tingling is a welcome sensation because it usually coincides with immediate relief of symptoms. Above a certain subjectively determined flow rate the sensation becomes unpleasant, which may be described as a “stinging” or “burning” sensation. At a still higher flow rate (maximum tolerable rate), the stinging sensation becomes intolerable and subjects remove the device from their nostril. Also, subjects are more sensitive to the first does of a series for one attack; subsequent doses give less or no sensation. […] The typical effective rate nasally was 1 to 5 ml/sec and 5 to 10 ml/sec orally.

[1] = tested on: human subjects with allergies (allergic rhinitis); format: in vivo; conditions: for 24-hr. Recur Rate / After Effects / Symptom Free, Minutes Post-Treatment / Symptom, Relief, Minutes Post-Treatment: moderate, severe; for Est. Rate / Est. Total Dose / Number of Doses / Single Dose Duration / Total Dose / Total Treatment Time: self-selected effective dose
Source text: as §1
Of the total of 15 subjects included in the analysis, 11 used the treatment for 35 headaches and 9 subjects used it for 9 allergy attacks. […] subjects treated both headache and allergy but on different days. The subjects included adults, elderly, and children of both sexes in good general health, having mild, moderate, and severe headaches or having allergies to plant, animal, or airborne allergens. The device was used to treat migraine and tension-type headaches, jaw pain, and allergies (allergic rhinitis, with symptoms that included sinus congestion, sneezing, and itchy throat and eyes). There was no limitation on the duration of symptoms before treatment with the device. Subjects with no prior use of the device and those who have used it (to treat allergy symptoms) previously were included.
Carbon dioxide (100%) was administered nasally by the subject for a few seconds via a nostril to fill the nasal passages while holding their breath, or taking breaths of room air occasionally if the dose was lengthy. The gas exited the other nostril. Such nasal administration is similar to presently marketed nasal inhalers except that the administered gas was not inhaled. […] Subjects took as many doses as they needed for relief. It is important to note that there were no number of doses, duration of dose, time between doses, or gas flow rate specified for the user. Subjects chose their own regimen for symptom relief. Similarly, in medical practice today, gas therapy is a “titrate to effect” therapy without a specified dosage.
For allergy, the rating of the intensity level depends on the extent to which the allergy interferes with the ability to function. […] The same outcome measures as for headache were used for allergy.

[2] = subject five, experience w/device 0
[3] = subject four, experience w/device 0
[4] = subject one, experience w/device >1000
[5] = subject six, experience w/device 0
[6] = subject three, experience w/device >1000
[7] = subject two, experience w/device 0
[8] = subject, experience w/device >10
[9] = Allergy (N = 8), more stringent outcome measure definitions
[10] = Allergy (N = 8), more stringent outcome measure definitions, 1 min post-treatment
[11] = Allergy (N = 8), more stringent outcome measure definitions, 5 min post-treatment
[12] = Allergy (N = 8), more stringent outcome measure definitions, 15 min post-treatment
[13] = Allergy (N = 8), more stringent outcome measure definitions, 30 min post-treatment
[14] = Allergy (N = 9), mild, 1 min post-treatment
[15] = Allergy (N = 9), mild, 5 min post-treatment
[16] = Allergy (N = 9), mild, 15 min post-treatment
[17] = Allergy (N = 9), mild, 30 min post-treatment

## O=C=O [carbon dioxide]
Human subjects; seven subjects
  tolerance of high flow rates, oral versus nasal: better tolerated orally than nasally
Human subjects; [2]
  Effective Nasal Rate: 1 to 2 mL/s
  Effective Oral Rate: 5 to 10 mL/s
  Max Tolerable Nasal Rate: 3 mL/s
  Max Tolerable Oral Rate: >10* ml/sec
Human subjects; [3]
  Effective Nasal Rate: 2 mL/s
  Effective Oral Rate: 2 mL/s
  Max Tolerable Nasal Rate: 4 mL/s
  Max Tolerable Oral Rate: >10* ml/sec
Human subjects; [4]
  Effective Nasal Rate: 4 to 5 mL/s
  Effective Oral Rate: 5 to 10 mL/s
  Max Tolerable Nasal Rate: 10 mL/s
  Max Tolerable Oral Rate: >10* ml/sec
Human subjects; [5]
  Effective Nasal Rate: <1 mL/s
  Effective Oral Rate: 5 to 10 mL/s
  Max Tolerable Nasal Rate: 2 mL/s
  Max Tolerable Oral Rate: >10* ml/sec
Human subjects; [6]
  Effective Nasal Rate: 4 to 5 mL/s
  Effective Oral Rate: 5 to 10 mL/s
  Max Tolerable Nasal Rate: 10 mL/s
  Max Tolerable Oral Rate: >10* ml/sec
Human subjects; [7]
  Effective Nasal Rate: <1 mL/s
  Effective Oral Rate: >10* ml/sec
  Max Tolerable Nasal Rate: <1 mL/s
  Max Tolerable Oral Rate: >10* ml/sec
Human subjects; [8]
  Effective Nasal Rate: 4 to 5 mL/s
  Effective Oral Rate: 5 to 10 mL/s
  Max Tolerable Nasal Rate: 10 mL/s
  Max Tolerable Oral Rate: >10* ml/sec
[1]; [9]
  24-hr. Recur Rate: 50%
  After Effects: 0%
[1]; [10]
  Symptom Free, Minutes Post-Treatment: 25%
  Symptom, Relief, Minutes Post-Treatment: 25%
[1]; [11]
  Symptom Free, Minutes Post-Treatment: 63%
  Symptom, Relief, Minutes Post-Treatment: 75%
[1]; [12]
  Symptom Free, Minutes Post-Treatment: 88%
  Symptom, Relief, Minutes Post-Treatment: 100%
[1]; [13]
  Symptom Free, Minutes Post-Treatment: 88%
  Symptom, Relief, Minutes Post-Treatment: 100%
[1]; Allergy (N = 9), mild
  After Effects: 0%
[1]; [14]
  Symptom Free, Minutes Post-Treatment: 33%
  Symptom, Relief, Minutes Post-Treatment: 33%
[1]; [15]
  Symptom Free, Minutes Post-Treatment: 67%
  Symptom, Relief, Minutes Post-Treatment: 78%
[1]; [16]
  Symptom Free, Minutes Post-Treatment: 89%
  Symptom, Relief, Minutes Post-Treatment: 100%
[1]; [17]
  Symptom Free, Minutes Post-Treatment: 89%
  Symptom, Relief, Minutes Post-Treatment: 100%
[1]; Allergy (N = 9), mild, N=4 for this determination
  24-hr. Recur Rate: 50%
[1]; Allergy-All
  Est. Rate: 3 mL/s
  Est. Total Dose: 133 mL
  Number of Doses: 2 #
  Single Dose Duration: 13 s
  Total Dose: 39 s
  Total Treatment Time: 5 min
[1]; Allergy-Mild
  Est. Rate: 5 mL/s
  Est. Total Dose: 200 mL
  Number of Doses: 2 #
  Single Dose Duration: 15 s
  Total Dose: 40 s
  Total Treatment Time: >0.7 min
[1]; Allergy-Moderate
  Est. Rate: 2 mL/s
  Est. Total Dose: 31 mL
  Number of Doses: 2 #
  Single Dose Duration: 3 s
  Total Dose: 16 s
  Total Treatment Time: >0.2 min
[1]; Allergy-Severe
  Est. Rate: 4 mL/s
  Est. Total Dose: 156 mL
  Number of Doses: 2 #
  Single Dose Duration: 17 s
  Total Dose: 46 s
  Total Treatment Time: >3.9 min
[1]; allergic rhinitis, occurring in seconds to minutes
  efficacy: 88-100%
[1]; allergy subjects
  adverse after effects of treatment: No subjects reported any adverse after effects
[1]; allergy, while administering the first dose
  onset of symptom relief: immediate onset of symptom relief within seconds
[1]; oral administration via pursed lips, allergic inflammation extending into the oral cavity
  oral versus nasal administration: more effective
[1]; recurrences
  time of recurrence of allergy symptoms post-treatment: ≥ 3 h

Source: patent US20050279350A1, “Methods and apparatus for relieving headaches, rhinitis and other common ailments” (priority 1999, published 2005)
